Measured values taken from patent publication US20040063729A1, “Triazolopyrimidines” (priority 2000, published 2004).

Test system: Kidney beans (variety:Serina)
Assay: Phytotoxicity tested at the same time in the foliar spray test
Type: in vivo
Settings: active compound concentration of 500 ppm; foliar spray on kidney beans
Experimental: Kidney beans (variety:Serina) were cultivated in plastic pots each having a diameter of 6 cm. The previously prepared solution of the prescribed concentration of active compound was sprayed over the plants in the 1 leaf stage at a rate of 20 ml per pot. One day after spraying, a gel obtained by mixing a suspension of spores of artificially cultured Botrytis cinera and PDA medium was added dropwise to the removed first leaf for infection in a plastic box having a size of 20 while maintaining humidity. 5 days after the inoculation, the infection rate per pot was classified and evaluated according to the following standard, and the control value (%) was calculated. Phytotoxicity was tested at the same time. This test is an average of the results of 3 replications. The evaluation of the infection rate and the calculation method of the control value were conducted as follows: […]

With `Cc1ccc(Cc2c(Cl)nc3ncnn3c2Cl)cc1` [I-94] as the molecule, how does the Phytotoxicity read?
The Phytotoxicity was “No phytotoxicity”.

For `Clc1cccc(Cc2cnc3ncnn3c2Cl)c1Cl` [I-142], which Phytotoxicity is on record?
The Phytotoxicity was “No phytotoxicity”.

For `Clc1ccc(Cc2cnc3ncnn3c2Cl)cc1Cl` [I-146], which Phytotoxicity is on record?
Its Phytotoxicity is “No phytotoxicity”.

For `CC(c1ccccc1)c1c(Cl)nc2ncnn2c1Cl` (stereo not shown) [I-112], which Phytotoxicity is on record?
The Phytotoxicity was “No phytotoxicity”.

For `Clc1cccc(Cc2c(Cl)nc3ncnn3c2Cl)c1` [I-76], which Phytotoxicity is on record?
Its Phytotoxicity is “No phytotoxicity”.

For `FC(F)(F)Oc1ccc(Cc2c(Cl)nc3ncnn3c2Cl)cc1` [I-104], which Phytotoxicity is on record?
The Phytotoxicity was “No phytotoxicity”.

With `Fc1ccc(Cc2c(Cl)nc3ncnn3c2Cl)c(F)c1F` [I-6] as the molecule, how does the Phytotoxicity read?
The Phytotoxicity was “No phytotoxicity”.

Which Phytotoxicity does the source give for `FC(F)(F)c1cccc(Cc2c(Cl)nc3ncnn3c2Cl)c1` [I-73] here?
The Phytotoxicity was “No phytotoxicity”.

Which Phytotoxicity does the source give for `Cc1cccc(Cc2c(Cl)nc3ncnn3c2Cl)c1` [I-75] here?
Its Phytotoxicity is “No phytotoxicity”.

For `Clc1nc2ncnn2c(Cl)c1Cc1ccccc1` [I-110], which Phytotoxicity is on record?
The Phytotoxicity was “No phytotoxicity”.

Which Phytotoxicity does the source give for `Fc1cc(F)c(Cc2c(Cl)nc3ncnn3c2Cl)c(F)c1` [I-20] here?
The Phytotoxicity was “No phytotoxicity”.

With `Fc1cc(F)c(Cc2c(Cl)nc3ncnn3c2Cl)cc1F` [I-18] as the molecule, how does the Phytotoxicity read?
Its Phytotoxicity is “No phytotoxicity”.

With `Fc1ccc(F)c(Cc2c(Cl)nc3ncnn3c2Cl)c1F` [I-11] as the molecule, how does the Phytotoxicity read?
Its Phytotoxicity is “No phytotoxicity”.

Which Phytotoxicity does the source give for `Clc1ccc(Cc2c(Cl)nc3ncnn3c2Cl)cc1` [I-95, 5,7-dichloro-6-(4-chlorobenzyl)[1,2,4]triazolo[1,5-a]pyrimidine] here?
Its Phytotoxicity is “No phytotoxicity”.

Test system: not given
Assay: not given
Settings: not given

With `Clc1c(Cc2ccccc2)cnc2ncnn12` [I-111, 6-benzyl-7-chloro[1,2,4]triazolo[1,5-a]pyrimidine] as the molecule, how does the melting point read?
Its melting point is 123 to 127 °C.

Which melting point does the source give for `Clc1ccc(Cc2c(Cl)nc3ncnn3c2Cl)cc1` [I-95, 5,7-dichloro-6-(4-chlorobenzyl)[1,2,4]triazolo[1,5-a]pyrimidine] here?
Its melting point is 165 to 167 °C.
